The target of assay [1] is T1, rat lens aldose reductase (RLAR) (Rattus norvegicus, UniProt P07943).
T1 construct: The supernatant was collected and used as the RLAR; from tissue; host or cells: Sprague–Dawley rat lens homogenate, 10,000 x g supernatant

Assay [2] has as its target T1, rat lens aldose reductase (RLAR). The assay can be described thus: Determination of RLAR inhibition in vitro (NADPH decrease at 340 nm, DL-glyceraldehyde substrate).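 As to all read-outs here: crude enzyme from Sprague–Dawley rat lens homogenate supernatant, absorbance read over 3 min in pH 6.2 potassium phosphate buffer with 1.6 mM NADPH and 25 mM substrate.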 The assay is classed as biochemical. Details: inhibition: dose or concentration left out as unconfirmed. Conditions: for IC50: Experiments; for inhibition: Table 2, printed under head DPPH/Experiments. A general note: DPPH is a stable violet radical that fades when it is reduced.
Experimental: Crude RLAR was prepared as follows: lenses weighing 250–280 g were removed from Sprague–Dawley rats and frozen at −70 °C until use. […] Non-cataractous transparent lenses were pooled and a homogenate was prepared in 0.1 M phosphate-buffered saline (pH 6.2). RLAR homogenate was then centrifuged at 10,000× g for 20 min at 4 °C in a refrigerated centrifuge. The supernatant was collected and used as the RLAR. All procedures were carried out at 4 °C [37].
RLAR activity was assayed spectrophotometrically by measuring the decrease in the absorption of NADPH at 340 nm over a 3-min period using DL-glyceraldehyde as the substrate. Each 1.0 mL cuvette contained equal units of the enzyme, 0.10 M potassium phosphate buffer (pH 6.2), 1.6 mM NADPH, 25 mM DL-glyceraldehyde (the substrate), and an inhibitor or dimethyl sulfoxide (DMSO).

Assay [3] can be described thus: DPPH free radical scavenging capacity. The protocol: The stable free radical was used to determine the free radical-scavenging activity of the extracts. Briefly, a 0.32 mM solution of DPPH in MeOH was prepared, and 180 µL of this solution was mixed with 30 µL of each sample at concentrations of 0.05–1.0 mg/mL in DMSO. After 20 min of incubation in the darkroom, the decrease in the absorbance of the solution was measured at 570 nm on a microplate reader (EL800 Universal Microplate reader, Bio-Tek instruments, Winooski, VT, USA). DPPH inhibitory activity was expressed as the percentage inhibition (%) of DPPH in the aforementioned assay system, and was calculated as [1 − (Asample − Ablank/Acontrol − Ablank)] × 100%, where Acontrol is the absorbance of DPPH solution (180 µL) with methanol (30 µL); Ablank is the absorbance of distilled water (180 µL) with methanol (30 µL); Asample is the absorbance of DPPH solution (180 µL) with sample solution (30 µL).

The nature of assay [4]: Offline DPPH HPLC assay of the n-BuOH fraction (peak area reduction). Conditions: n-BuOH fraction 20 mg/mL mixed with […] DPPH, 20 min, HPLC 254 nm. The protocol: The sample was analyzed using an Agilent Technologies modular model 1200 system with a vacuum degasser (G1322A), a quaternary pump (G1311A), an auto-sampler (G1329A), a thermo-statted column compartment (G1316A), and a variable wavelength detector (VWD, G1314D) system. The separation was achieved on an Eclipse XDB-phenyl column (150 mm × 4.6 mm, 3.5 μm) maintained at 30 °C. The elution solvents were 0.1% trifluoroacetic acid (A) and MeOH (B) with the following gradient: 20%–30% B (0–3 min), 30%–40% B (3–10 min), 40%–50% B (10–20 min), 50%–60% B […], 60%–100% B (25–35 min), 100%–100% B (35–38 min), 100%–20% B (38–40 min), and 20%–20% B (40–45 min). Injection volume was 10 µL (sample concentration: 1 mg/mL) and UV wavelength was 254 nm.
The offline DPPH HPLC assay was performed by modifying a previously-described protocol. Thirty microliters (20 mg/mL in MeOH) of the n-BuOH fraction from APE were mixed with 180 μL prepared DPPH solution (0.32 mM). The mixture was incubated in the dark for 20 min, then filtered through a 0.45-μm filter for HPLC analysis. The n-BuOH (20 mg/mL in MeOH) was used as a control. The extent of peak decrease is expressed as a quantitative reduction.

The test system of assay [5] is sorbitol accumulation in rat lenses. Description: Lens culture and intracellular sorbitol measurement (ex vivo). The settings on record: compound 5.0 μg/mL; for Inhibition (%) of sorbitol accumulation in rat lens: isolated rat lens ex vivo; for Sorbitol Content (mg)/Lens Wet Weight (g): isolated rat lens, 30 mM glucose medium, 6 d. The protocol:
Lenses isolated from 10-week-old Sprague–Dawley rats using the registration number mentioned in the section of 4.5 were cultured for 6 d in TC-199 medium that contained 15% fetal bovine serum, 100 units/mL penicillin, and 0.1 mg/mL streptomycin, under sterile conditions and an atmosphere of 5% CO2 and 95% air at 37 °C. Samples were dissolved in DMSO. The lenses were divided into three groups and cultured in medium containing 30 mM glucose and RLAR-active compounds. Each lens was placed in a well containing 2.0 mL of medium. Sorbitol was determined by HPLC using the methods mentioned in the section of 4.7 after its derivatization by reaction with benzoic acid to a fluorescent compound [42].

Assay [6] deals with T2, recombinant human aldose reductase (RHAR) (Homo sapiens, UniProt P15121).
T2 construct: purchased Wako Pure Chemical Industries (Osaka, Japan)
Conditions: cited from earlier work; for Inhibition type (References): Table 3; for inhibition pattern against RHAR: ref Lee et al., Ha et al., Chethan et al. 31, 32, 33.

The mark [7] stands for this setting: literature value; read-out: RLAR IC50 (References); cited from earlier work.

The source of these data is PMC5343914, “Phytochemical Analysis of Agrimonia pilosa Ledeb, Its Antioxidant Activity and Aldose Reductase Inhibitory Potential” (International Journal of Molecular Sciences, 2017).

What is called IC50 is the concentration that inhibits the measured activity by half. By inhibition is commonly meant the percentage by which the read-out fell short of the control.

Structures are written as SMILES. Like-named read-outs stand apart in the source and are kept apart here. Some results are limits rather than exact numbers.

Consider `O=C(O)CC1(CC(=O)O)CCCC1` [TMG, tetramethylene glutaric acid], for which the IC50 is 1 µM in assay [1] (setting [7]) and 0.5 ± 0.05 µM in assay [2]. Also, in assay [2] (Table 1, concentration not in table, text b9: crude extract 10.0 μg/mL, EtOAc, n-BuOH fractions and TMG 1.0 μg/mL), the “Inhibition (%) RLAR” value came to 99.7 ± 0.11%.
Consider `O=c1c(O[C@@H]2O[C@H](CO)[C@@H](O)[C@H](O)[C@H]2O)c(-c2ccc(O)cc2)oc2cc(O)cc(O)c12` [Astragalin (AS), astragalin], for which the “DPPH free radical scavenging activity (in words)” value in assay [3] is reported as “no DPPH free radical scavenging activity”. The IC50 was greater than 250 µM in assay [3], greater than 30 µM in assay [1] (setting [7]) and 5.1 ± 0.89 µM in assay [2]. In assay [2], the inhibition turned out to be 53.3 ± 1.14%.
As to `O=c1cc(-c2ccc(O)cc2)oc2cc(O[C@@H]3O[C@H](CO)[C@@H](O)[C@H](O)[C@H]3O)cc(O)c12` [Apigenin-7-O-glucoside (AGC), apigenin-7-O-glucoside], in assay [3], the “DPPH free radical scavenging activity (in words)” value was “almost no DPPH free radical scavenging activity” and the IC50 is greater than 250 µM. The “peak area reduction (PAR)” value in assay [4] is “lower than 20.0%”. Besides, the IC50 in assay [1] (setting [7]) was 23 µM. In assay [2], this molecule registered an IC50 of 4.3 ± 0.14 µM and an inhibition of 40.2 ± 0.56%.
With `O=c1cc(-c2ccc(O)c(O)c2)oc2cc(O[C@@H]3O[C@H](CO)[C@@H](O)[C@H](O)[C@H]3O)cc(O)c12` [Luteolin-7-O-glucoside (LGC), luteolin-7-O-glucoside], the results for the IC50 in assay [3], in assay [1] (setting [7]) and in assay [2] were 71.5 ± 0.29 µM, 7.5 µM and 8.1 ± 0.72 µM, respectively. Besides, the “peak area reduction (PAR)” value in assay [4] was “lower than 20.0%”. In assay [2], this molecule showed an inhibition of 46.9 ± 0.95%.
In assay [3], `O=c1c(O)c(-c2ccc(O)c(O)c2)oc2cc(O)cc(O)c12` [Quercetin (QC), quercetin] showed a 50% inhibitory concentration (IC50) of 70.4 ± 0.15 µM. Besides, in assay [5], the “Inhibition (%) of sorbitol accumulation in rat lens” value (shortened to “Inhibition (%) … in rat lens”) is recorded as 85.7 ± 8.32% and the “Sorbitol Content (mg)/Lens Wet Weight (g)” value (“Sorbitol Content” below) is listed as 0.21 ± 0.02 mg/g. Besides, in assay [6], the “Inhibition type (References)” value was “Noncompetitive [31]” and the “inhibition pattern against RHAR” value is given as “noncompetitive”. This molecule also gave an inhibition at 10 µg/mL in assay [2] of 74.1 ± 0.85%.
Turning to `C[C@@H]1O[C@@H](Oc2c(-c3ccc(O)cc3)oc3cc(O)cc(O)c3c2=O)[C@H](O)[C@H](O)[C@H]1O` [Afzelin (AZ), afzelin], in assay [3], the “DPPH free radical scavenging activity (in words)” value is “no DPPH free radical scavenging activity” and the IC50 is greater than 250 µM. Further, in assay [5], the “Inhibition (%) … in rat lens” value was determined as 93.2 ± 8.67% and the “Sorbitol Content” value came out at 0.10 ± 0.01 mg/g.
In assay [3], `C[C@@H]1O[C@@H](OC[C@H]2O[C@@H](Oc3c(-c4ccc(O)c(O)c4)oc4cc(O)cc(O)c4c3=O)[C@H](O)[C@@H](O)[C@@H]2O)[C@H](O)[C@H](O)[C@H]1O` [Rutin (RT), rutin] yielded an IC50 of 66.8 ± 0.34 µM. Also, in assay [4], the “peak area reduction (PAR)” value is given as “lower than 20.0%”. In assay [2], this molecule showed an IC50 of 9.5 ± 0.75 µM and an inhibition of 31.7 ± 0.65%.
Turning to `O=C(O)[C@H]1O[C@@H](Oc2cc(O)c3c(=O)cc(-c4ccc(O)cc4)oc3c2)[C@H](O)[C@@H](O)[C@@H]1O` [Apigenin-7-O-glucuronide (AGN), apigenin-7-O-glucuronide], in assay [3], the “DPPH free radical scavenging activity (in words)” value was “almost no DPPH free radical scavenging activity” and the IC50 was greater than 250 µM. Also, the “peak area reduction (PAR)” value in assay [4] is recorded as “lower than 20.0%”. Further, in assay [2], the “RLAR inhibitory activity (in words)” value is “inactive”, the IC50 was greater than 30 µM and the inhibition is less than 0%.
In the case of `O=c1cc(-c2ccc(O)cc2)oc2cc(O)cc(O)c12` [Apigenin (AG), apigenin], the figures for the IC50 in assay [3], in assay [1] (read-out: RLAR IC50 (References); literature value; cited from earlier work) and in assay [2] were 156.3 ± 1.21 µM, 2.2 µM and 3.2 ± 0.21 µM, respectively. Also, the inhibition in assay [2] amounted to 81.8 ± 1.2%.
The molecule `C[C@@H]1O[C@@H](Oc2c(-c3ccc(O)c(O)c3)oc3cc(O)cc(O)c3c2=O)[C@H](O)[C@H](O)[C@H]1O` [Quercitrin (QU), quercitrin] gave an IC50 in assay [3] of 77.9 ± 0.27 µM. In addition, in assay [5], the “Inhibition (%) … in rat lens” value is reported as 76.9 ± 5.32% and the “Sorbitol Content” value was determined as 0.34 ± 0.02 mg/g. In assay [6], the “Inhibition type (References)” value was “Uncompetitive [29]” and the “inhibition pattern against RHAR” value was “uncompetitive”. Also, in assay [2], the inhibition at 10 µg/mL worked out at 97.4 ± 1.38% and the IC50 is 0.2 ± 0.02 µM. In addition, in assay [2] (IC50 0.2 μM vs TMG 0.5 μM), the “RLAR potency relative to positive control TMG (times higher)” value came to 2.5 times.
Take `O=C1O[C@H]([C@@H](O)CO)C(O)=C1O` [L-Ascorbic acid, L-ascorbic acid]: it took 147.3 ± 0.43 µM to reach half-maximal inhibition in assay [3] (IC50). The “Inhibition (%) DPPH” value in assay [3] (Table 1, concentration not in table, text b9: crude extract 7.1 μg/mL) worked out at 81.0 ± 0.01%.
For `Oc1cc(O)c2c(c1)OC(c1ccc(O)c(O)c1)C(O)C2` (centres unmarked) [Catechin (CT), catechin], the IC50 is 106.7 ± 0.43 µM in assay [3], greater than 30 µM in assay [1] (setting [7]) and greater than 30 µM in assay [2]. In addition, the inhibition in assay [2] was found to be 7.2 ± 1.02%.
For `O=c1c(O)c(-c2ccc(O)cc2)oc2cc(O)cc(O)c12` [Kaempferol (KP), kaempferol], the IC50 in assay [3] is 91.6 ± 0.68 µM; in assay [1] (setting [7]) it was 10 µM; in assay [2], 15.2 ± 1.32 µM. The molecule also had an inhibition in assay [2] of 11.8 ± 0.81%.
With `O=c1cc(-c2ccc(O)c(O)c2)oc2cc(O)cc(O)c12` [Luteolin (LT), luteolin], the midpoint of inhibition in assay [3], the IC50, lay at 88.2 ± 0.52 µM. Also, in assay [5], the “Inhibition (%) … in rat lens” value was 91.8 ± 7.91% and the “Sorbitol Content” value turned out to be 0.12 ± 0.01 mg/g. In assay [6], the “Inhibition type (References)” value was “Mixed type [30]” and the “inhibition pattern against RHAR” value is on record as “mixed-type”. This molecule registered an inhibition in assay [2] of 80.2 ± 0.9%.
As for `O=c1c(O[C@@H]2O[C@H](CO)[C@H](O)[C@H](O)[C@H]2O)c(-c2ccc(O)c(O)c2)oc2cc(O)cc(O)c12` [Hyperin (HP), hyperin], the values for the IC50 in assay [3], in assay [1] (setting [7]) and in assay [2] were 73.3 ± 0.23 µM, 3 µM and 4.1 ± 0.32 µM, respectively. The molecule also yielded an inhibition in assay [2] of 90.8 ± 0.96%.
With `O=c1c(O[C@@H]2O[C@H](CO)[C@@H](O)[C@H](O)[C@H]2O)c(-c2ccc(O)c(O)c2)oc2cc(O)cc(O)c12` [Isoquercitrin (IQC), Isoquercitrin], the IC50 in assay [3] was 65.9 ± 0.46 µM; in assay [1] (setting [7]), 4.5 µM; in assay [2] it was 5.1 ± 0.88 µM. This molecule came in with an inhibition in assay [2] of 41 ± 1.07%.
With `O=c1cc(-c2ccc(O)cc2)oc2c([C@@H]3O[C@H](CO)[C@@H](O)[C@H](O)[C@H]3O)c(O)cc(O)c12` [Vitexin (VT), vitexin], in assay [3], the “DPPH free radical scavenging activity (in words)” value is reported as “no DPPH free radical scavenging activity”. Besides, the IC50 in assay [3] was greater than 250 µM; in assay [1] (setting [7]), greater than 30 µM; in assay [2] it was greater than 30 µM. Besides, the inhibition in assay [2] is 12.2 ± 0.95%.
